This assay deals with recombinant DYRK1A kinase (Homo sapiens (Human), UniProt Q13627). Description: DYRK1A kinase assay (Ser/Thr 18 peptide Z-lyte FRET). The following applies: DYRK1A kinase activity, Z-lyte Ser/Thr 18 peptide, 15 μM ATP; method text calls the value IC50; read-out: EC50 (the source's name). In kind it is biochemical. The method in brief: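 Recombinant enzyme (0.25 μg/mL final) was incubated with 15 μM ATP, 4 μM Ser/Thr 18 peptide and compound (11-point 1:3 series from 10 μM) for 1 h at room temperature, in duplicate. Development reagent was added for 1 h, and coumarin/fluorescein emission ratio gave % phosphorylation; IC50 by non-linear regression.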

Experimental findings from patent publication US20240002391A1, “4-ALKOXYPYRROLO[2,1-F][1,2,4]TRIAZINES AND PREPARATION AND USES THEREOF” (BioSplice Therapeutics, Inc., priority 2022, published 2024) are described below.

`COc1nc(N[C@@H]2CN(C(C)=O)C[C@@H]2F)nn2ccc(-c3ccc4nnn(CC(F)(F)F)c4c3)c12` [Compound 912, 1-((3S,4R)-3-Fluoro-4-((4-methoxy-5-(1-(2,2,2-trifluoroethyl)-1H-benzo[d][1,2,3]triazol-6-yl)pyrrolo[2,1-f][1,2,4]triazin-2-yl)amino)pyrrolidin-1-yl)ethan-1-one]: the IC50 stood at 0.8 nM.

Regarding `COc1nc(NC2CCC3(CC2)COC3)nn2ccc(-c3ccc4nc(C)n(CCO)c4c3)c12` [Compound 174, 2-(6-(2-((2-Oxaspiro[3.5]nonan-7-yl)amino)-4-methoxypyrrolo[2,1-f][1,2,4]triazin-5-yl)-2-methyl-1H-benzo[d]imidazol-1-yl)ethan-1-ol], the IC50 is 3 nM.

As to `COc1nc(NC2CCC(=O)N(C)C2)nn2ccc(-c3ccc4nc(C)n(CC(F)F)c4c3)c12` (stereo not shown) [Compound 507, 5-((5-(1-(2,2-Difluoroethyl)-2-methyl-1H-benzo[d]imidazol-6-yl)-4-methoxypyrrolo[2,1-f][1,2,4]triazin-2-yl)amino)-1-methylpiperidin-2-one], the IC50 came out at 3.1 nM.

Take `COc1nc(N[C@@H]2CN(C3COC3)C[C@@H]2F)nn2ccc(-c3ccc4nccnc4c3)c12` [Compound 355, N-((3R,4S)-4-Fluoro-1-(oxetan-3-yl)pyrrolidin-3-yl)-4-methoxy-5-(quinoxalin-6-yl)pyrrolo[2,1-f][1,2,4]triazin-2-amine]: the IC50 turned out to be 2.7 nM.

With `COc1nc(N[C@H]2C[C@](C)(C(=O)NC3CC(F)(F)C3)C2)nn2ccc(-c3ccc4ncccc4c3)c12` [Compound 1041, trans-N-(3,3-Difluorocyclobutyl)-3-((4-methoxy-5-(quinolin-6-yl)pyrrolo[2,1-f][1,2,4]triazin-2-yl)amino)-1-methylcyclobutane-1-carboxamide], the IC50 came to 0.9 nM.

Take `COc1nc(N[C@@H]2CN(C)C[C@@H]2F)nn2ccc(-c3ccc4nc(C)n(CC(F)F)c4c3)c12` [Compound 114, 5-(1-(2,2-Difluoroethyl)-2-methyl-1H-benzo[d]imidazol-6-yl)-N-((3R,4S)-4-fluoro-1-methylpyrrolidin-3-yl)-4-methoxypyrrolo[2,1-f][1,2,4]triazin-2-amine]: the IC50 was 1.9 nM.

For `COc1nc(NC2CCN(C3COC3)CC2)nn2ccc(-c3ccn4nccc4c3)c12` [Compound 26, 4-Methoxy-N-(1-(oxetan-3-yl)piperidin-4-yl)-5-(pyrazolo[1,5-a]pyridin-5-yl)pyrrolo[2,1-f][1,2,4]triazin-2-amine], the IC50 came out at 7.1 nM.

As to `COc1nc(N[C@H]2C[C@@](C)(C(=O)NC3CC3)C2)nn2ccc(-c3ccc4nnn(C)c4c3)c12` [Compound 217, cis-N-Cyclopropyl-3-((4-methoxy-5-(1-methyl-1H-benzo[d][1,2,3]triazol-6-yl)pyrrolo[2,1-f][1,2,4]triazin-2-yl)amino)-1-methylcyclobutane-1-carboxamide], the IC50 came to 9.3 nM.

Turning to `CNC(=O)c1cnc2ccc(-c3ccn4nc(N[C@H]5CC[C@@H](OC)CC5)nc(OC)c34)cn12` [Compound 439, 6-(4-Methoxy-2-((cis-4-methoxycyclohexyl)amino)pyrrolo[2,1-f][1,2,4]triazin-5-yl)-N-methylimidazo[1,2-a]pyridine-3-carboxamide], the IC50 turned out to be 2.3 nM.

For the compound `C[C@]1(O)CC[C@H](Nc2nc(OCC(F)F)c3c(-c4ccc5nccnc5c4)ccn3n2)CC1` [Compound 1130, (1r,4r)-4-((4-(2,2-Difluoroethoxy)-5-(quinoxalin-6-yl)pyrrolo[2,1-f][1,2,4]triazin-2-yl)amino)-1-methylcyclohexan-1-ol], the IC50 was 0.8 nM.

Regarding `COc1nc(NC2CCN(CC(F)(F)F)CC2)nn2ccc(-c3ccc4ncccc4c3)c12` [Compound 305, 4-Methoxy-5-(quinolin-6-yl)-N-(1-(2,2,2-trifluoroethyl)piperidin-4-yl)pyrrolo[2,1-f][1,2,4]triazin-2-amine], the IC50 was determined as 80.7 nM.

Regarding `COc1nc(N[C@H]2CC[C@@H](NC(C)=O)CC2)nn2ccc(-c3ccn4nccc4c3)c12` [Compound 17, N-(cis-4-((4-methoxy-5-(pyrazolo[1,5-a]pyridin-5-yl)pyrrolo[2,1-f][1,2,4]triazin-2-yl)amino)cyclohexyl)acetamide], the IC50 amounted to 17.5 nM.

Take `COCCO[C@H]1CC[C@@H](Nc2nc(OC)c3c(-c4ccn5nccc5c4)ccn3n2)CC1` [Compound 15, 4-Methoxy-N-(cis-4-(2-methoxyethoxy)cyclohexyl)-5-(pyrazolo[1,5-a]pyridin-5-yl)pyrrolo[2,1-f][1,2,4]triazin-2-amine]: the IC50 stood at 33.7 nM.

For the compound `Oc1nc(N[C@@H]2CN(C3COC3)C[C@@H]2F)nn2ccc(-c3cnc4nccn4c3)c12` [Compound 265, 2-(((3R,4S)-4-fluoro-1-(oxetan-3-yl)pyrrolidin-3-yl)amino)-5-(imidazo[1,2-a]pyrimidin-6-yl)pyrrolo[2,1-f][1,2,4]triazin-4-ol], the IC50 amounted to 58.9 nM.

As to `COc1nc(N[C@H]2C[C@]3(CCN3C(C)=O)C2)nn2ccc(-c3ccc4nccnc4c3)c12` [Compound 383, 1-((4s,6r)-6-((4-Methoxy-5-(quinoxalin-6-yl)pyrrolo[2,1-f][1,2,4]triazin-2-yl)amino)-1-azaspiro[3.3]heptan-1-yl)ethan-1-one], the IC50 turned out to be 1.4 nM.

For `COc1nc(NC2CCC3(CC2)CN(C(C)=O)C3)nn2ccc(-c3ccc4ncnn4c3)c12` [Compound 196, 1-(7-((5-([1,2,4]Triazolo[1,5-a]pyridin-6-yl)-4-methoxypyrrolo[2,1-f][1,2,4]triazin-2-yl)amino)-2-azaspiro[3.5]nonan-2-yl)ethan-1-one], the IC50 is 1.1 nM.

As for `COc1nc(NC2CCN(C3COC3)CC2)nn2ccc(-c3ccc4nnn(CC(F)F)c4c3)c12` [Compound 750, 5-(1-(2,2-Difluoroethyl)-1H-benzo[d][1,2,3]triazol-6-yl)-4-methoxy-N-(1-(oxetan-3-yl)piperidin-4-yl)pyrrolo[2,1-f][1,2,4]triazin-2-amine], the IC50 came to 0.3 nM.

Turning to `COc1nc(N[C@H]2CC[C@H](NC(C)=O)CC2)nn2ccc(-c3ccc4nccnc4c3)c12` [Compound 344, N-(trans-4-((4-Methoxy-5-(quinoxalin-6-yl)pyrrolo[2,1-f][1,2,4]triazin-2-yl)amino)cyclohexyl)acetamide], the IC50 worked out at 1.8 nM.

In the case of `COc1nc(N[C@@H]2CCN(C3COC3)CC2(F)F)nn2ccc(-c3cc(F)c4nccn4c3)c12` [Compound 435, (R)—N-(3,3-Difluoro-1-(oxetan-3-yl)piperidin-4-yl)-5-(8-fluoroimidazo[1,2-a]pyridin-6-yl)-4-methoxypyrrolo[2,1-f][1,2,4]triazin-2-amine], the IC50 came out at 8.9 nM.

For `COc1nc(N[C@H]2CC[C@@H](OC(F)F)CC2)nn2ccc(-c3cnc4nccn4c3)c12` [Compound 250, N-(cis-4-(Difluoromethoxy)cyclohexyl)-5-(imidazo[1,2-a]pyrimidin-6-yl)-4-methoxypyrrolo[2,1-f][1,2,4]triazin-2-amine], the IC50 was determined as 0.6 nM.

Take `COc1nc(NC2CCC3(CC2)CN(C(C)=O)C3)nn2ccc(-c3ccc4nc(C)n(CCO)c4c3)c12` [Compound 173, 1-(7-((5-(1-(2-hydroxyethyl)-2-methyl-1H-benzo[d]imidazol-6-yl)-4-methoxypyrrolo[2,1-f][1,2,4]triazin-2-yl)amino)-2-azaspiro[3.5]nonan-2-yl)ethan-1-one]: the IC50 was 1.7 nM.

In the case of `COc1nc(N[C@@H]2CN(C(C)=O)C[C@@H]2F)nn2ccc(-c3cc(F)c4nnn(CC(F)F)c4c3)c12` [Compound 812, 1-((3R,4S)-3-((5-(1-(2,2-Difluoroethyl)-4-fluoro-1H-benzo[d][1,2,3]triazol-6-yl)-4-methoxypyrrolo[2,1-f][1,2,4]triazin-2-yl)amino)-4-fluoropyrrolidin-1-yl)ethan-1-one], the IC50 stood at 2.8 nM.

Turning to `COc1nc(N[C@@H]2CCOC[C@H]2F)nn2ccc(-c3cnc4nccn4c3)c12` [Compound 1149, N-((3S,4R)-3-Fluorotetrahydro-2H-pyran-4-yl)-5-(imidazo[1,2-a]pyrimidin-6-yl)-4-methoxypyrrolo[2,1-f][1,2,4]triazin-2-amine], the IC50 stood at 4.5 nM.

As to `COc1nc(N[C@@H]2CCN(C(C)=O)CC2(F)F)nn2ccc(-c3ccc4nnn(CC(F)F)c4c3)c12` [Compound 788, (R)-1-(4-((5-(1-(2,2-Difluoroethyl)-1H-benzo[d][1,2,3]triazol-6-yl)-4-methoxypyrrolo[2,1-f][1,2,4]triazin-2-yl)amino)-3,3-difluoropiperidin-1-yl)ethan-1-one], the IC50 is 0.7 nM.

With `COc1nc(N[C@@H]2CCNCC2(F)F)nn2ccc(-c3ccc4ncnn4c3)c12` [Compound 575, (R)-5-([1,2,4]Triazolo[1,5-a]pyridin-6-yl)-N-(3,3-difluoropiperidin-4-yl)-4-methoxypyrrolo[2,1-f][1,2,4]triazin-2-amine], the IC50 stood at 6.9 nM.

Consider `COc1nc(NC2CCN(C(C)=O)CC2)nn2ccc(-c3ccc4nccn4c3)c12` [Compound 63, 1-(4-((5-(Imidazo[1,2-a]pyridin-6-yl)-4-methoxypyrrolo[2,1-f][1,2,4]triazin-2-yl)amino)piperidin-1-yl)ethan-1-one], for which the IC50 came to 4.6 nM.

Regarding `COc1nc(NCC(C)(C)C#N)nn2ccc(-c3cnc4nccn4c3)c12` [Compound 1146, 3-((5-(Imidazo[1,2-a]pyrimidin-6-yl)-4-methoxypyrrolo[2,1-f][1,2,4]triazin-2-yl)amino)-2,2-dimethylpropanenitrile], the IC50 is 2 nM.

With `COc1nc(N[C@@H]2CCNCC2(F)F)nn2ccc(-c3cnc4nccn4c3)c12` [Compound 964, (R)—N-(3,3-Difluoropiperidin-4-yl)-5-(imidazo[1,2-a]pyrimidin-6-yl)-4-methoxypyrrolo[2,1-f][1,2,4]triazin-2-amine], the IC50 was 4.3 nM.
